Results taken from PubChem BioAssay AID256 (DTP/NCI, 2004).
Inconclusive results and toxic doses are left out. How the source made its calls: active means survival T/C of 150% or more; inactive means T/C below 125% in these data.

System: CD2F1 mice, L1210 leukemia ip, survival T/C
Assay: NCI In Vivo Anticancer Drug Screen. Data for tumor model L1210 Leukemia (intraperitoneal) in CD2F1 (CDF1) mice
Settings: higher = longer survival
In short: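 Ratio T/C, where T is the treated-group value and C the vehicle-dosed control value, from mice implanted with a transplantable tumor.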

[1] = endpoint: mean survival time, dose: 100.0 mg/kg/injection, schedule: Q01DX009 (ip), vehicle: saline with Tween-80
[2] = endpoint: mean survival time, dose: 200.0 mg/kg/injection, schedule: Q01DX009 (ip), vehicle: saline with Tween-80
[3] = endpoint: mean survival time, dose: 400.0 mg/kg/injection, schedule: Q01DX009 (ip), vehicle: saline with Tween-80
[4] = endpoint: mean survival time, dose: 100.0 mg/kg/injection, schedule: Q04DX003 (ip), vehicle: saline
[5] = endpoint: mean survival time, dose: 200.0 mg/kg/injection, schedule: Q04DX003 (ip), vehicle: saline

Measured: T/C

N#Cc1n[nH]c(C2OC(CO)C(O)C2O)c1O (configuration not stated)
inactive: endpoint: median survival time, dose: 9.38 mg/kg/injection, schedule: Q01DX005 (ip), vehicle: water 104 % of control | endpoint: median survival time, dose: 18.75 mg/kg/injection, schedule: Q01DX005 (ip), vehicle: water 106 % of control | endpoint: median survival time, dose: 39.5 mg/kg/injection, schedule: Q01DX005 (ip), vehicle: water 109 % of control | endpoint: median survival time, dose: 79.0 mg/kg/injection, schedule: Q01DX005 (ip), vehicle: water 109 % of control | endpoint: median survival time, dose: 158.0 mg/kg/injection, schedule: Q01DX005 (ip), vehicle: water 109 % of control

COC(=O)C1(C)CCCC2(C)C1CCC13OC(=O)C(C(C)C)(CC21)C3O (configuration not stated)
inactive: [1] 94 % of control | [2] 88 % of control | [3] 92 % of control

COC(=O)C(CSCc1ccccc1)NC(=O)CCNC(=O)OCc1ccccc1 (configuration not stated)
inactive: endpoint: mean survival time, dose: 25.0 mg/kg/injection, schedule: Q01DX009 (ip), vehicle: Klucel (hydroxypropylcellulose) (HPC) 102 % of control | endpoint: mean survival time, dose: 50.0 mg/kg/injection, schedule: Q01DX009 (ip), vehicle: Klucel (hydroxypropylcellulose) (HPC) 102 % of control | endpoint: mean survival time, dose: 100.0 mg/kg/injection, schedule: Q01DX009 (ip), vehicle: Klucel (hydroxypropylcellulose) (HPC) 96 % of control | endpoint: mean survival time, dose: 200.0 mg/kg/injection, schedule: Q01DX009 (ip), vehicle: Klucel (hydroxypropylcellulose) (HPC) 102 % of control | endpoint: mean survival time, dose: 400.0 mg/kg/injection, schedule: Q01DX009 (ip), vehicle: Klucel (hydroxypropylcellulose) (HPC) 86 % of control

Cc1ccc(N)c(N)c1
inactive: endpoint: median survival time, dose: 25.0 mg/kg/injection, schedule: Q01DX009 (ip), vehicle: saline with Tween-80 98 % of control | endpoint: median survival time, dose: 50.0 mg/kg/injection, schedule: Q01DX009 (ip), vehicle: saline with Tween-80 98 % of control | endpoint: median survival time, dose: 100.0 mg/kg/injection, schedule: Q01DX009 (ip), vehicle: saline with Tween-80 96 % of control

CC(C)(C)C(=O)CC(O)(C(F)(F)F)C(F)(F)F
inactive: [4] 100 % of control | [5] 97 % of control | endpoint: mean survival time, dose: 400.0 mg/kg/injection, schedule: Q04DX003 (ip), vehicle: saline 100 % of control

CCCCCNCCOC(=O)c1ccc(N)cc1
inactive: endpoint: mean survival time, dose: 5.0 mg/kg/injection, schedule: Q01DX001 (ip), vehicle: saline 100 % of control | endpoint: mean survival time, dose: 10.0 mg/kg/injection, schedule: Q01DX001 (ip), vehicle: saline 100 % of control | endpoint: mean survival time, dose: 20.0 mg/kg/injection, schedule: Q01DX001 (ip), vehicle: saline 94 % of control | endpoint: mean survival time, dose: 40.0 mg/kg/injection, schedule: Q01DX001 (ip), vehicle: saline 104 % of control

CN(C)C(=O)Nc1cccc2ccccc12
inactive: endpoint: mean survival time, dose: 100.0 mg/kg/injection, schedule: Q04DX002 (ip), vehicle: saline with Tween-80 94 % of control | endpoint: mean survival time, dose: 200.0 mg/kg/injection, schedule: Q04DX002 (ip), vehicle: saline with Tween-80 105 % of control | endpoint: mean survival time, dose: 400.0 mg/kg/injection, schedule: Q04DX002 (ip), vehicle: saline with Tween-80 90 % of control

COc1ccc(/C=C(/C#N)C(N)=O)cc1Br
inactive: endpoint: mean survival time, dose: 50.0 mg/kg/injection, schedule: Q01DX009 (ip), vehicle: acetone 96 % of control | endpoint: mean survival time, dose: 100.0 mg/kg/injection, schedule: Q01DX009 (ip), vehicle: acetone 98 % of control | endpoint: mean survival time, dose: 200.0 mg/kg/injection, schedule: Q01DX009 (ip), vehicle: acetone 93 % of control

COc1ccccc1OC
inactive: [1] 95 % of control | [2] 92 % of control | [3] 92 % of control

CC(S)c1ccccc1 (configuration not stated)
inactive: endpoint: mean survival time, dose: 50.0 mg/kg/injection, schedule: Q01DX009 (ip), vehicle: saline with Tween-80 90 % of control | [1] 102 % of control | endpoint: mean survival time, dose: 100.0 mg/kg/injection, schedule: Q04DX003 (ip), vehicle: saline with Tween-80 104 % of control | [2] 104 % of control | endpoint: mean survival time, dose: 200.0 mg/kg/injection, schedule: Q04DX003 (ip), vehicle: saline with Tween-80 98 % of control

COC(=O)C(C)NC(=O)C(CO)NC(=O)c1cnc2ccccc2n1 (configuration not stated)
inactive: endpoint: mean survival time, dose: 100.0 mg/kg/injection, schedule: Q01DX001 (ip), vehicle: saline 98 % of control | endpoint: mean survival time, dose: 200.0 mg/kg/injection, schedule: Q01DX001 (ip), vehicle: saline 102 % of control | endpoint: mean survival time, dose: 400.0 mg/kg/injection, schedule: Q01DX001 (ip), vehicle: saline 94 % of control

CCN(CC)Cc1cn(C2CC(O)C(CO)O2)c(=O)[nH]c1=O (configuration not stated)
inactive: endpoint: mean survival time, dose: 12.5 mg/kg/injection, schedule: Q01DX005 (ip), vehicle: water 100 % of control | endpoint: mean survival time, dose: 25.0 mg/kg/injection, schedule: Q01DX005 (ip), vehicle: water 104 % of control | endpoint: mean survival time, dose: 50.0 mg/kg/injection, schedule: Q01DX005 (ip), vehicle: water 91 % of control | endpoint: mean survival time, dose: 100.0 mg/kg/injection, schedule: Q01DX005 (ip), vehicle: water 100 % of control | endpoint: mean survival time, dose: 200.0 mg/kg/injection, schedule: Q01DX005 (ip), vehicle: water 98 % of control

CCCCCCOC(=O)C[n+]1ccc(C(N)=O)cc1
inactive: [4] 101 % of control | [5] 94 % of control
